In patent publication US20140005165A1, “SUBSTITUTED 3-AZABICYCLO[3.1.0]HEXANE DERIVATIVES USEFUL AS CCR2 ANTAGONISTS” (priority 2011, published 2014):

Target: T1, human CCR2 (Homo sapiens, UniProt P41597)
T1 construct: expressed in transfected cells; host or cells: Ba/F3 cells (membrane preparation)
Experiment: CCR2 Membrane Binding Assay (SPA radio-ligand binding, 125I-rhMCP-1)
Conditions: membranes from Ba/F3 cells transfected with human CCR2; 0.03 nM 125I-rhMCP-1; 4 h room temperature
Method: The radio-ligand binding assay was done using scintillation proximity assay (SPA) technology. Briefly, membranes (1 μg per assay point) from Ba/F3 cells transfected with human CCR2, and wheat germ agglutinin-coated SPA beads (80 μg per point; Amersham, Arlington Heights, Ill.), were pre-incubated for 30 min at room temperature in CCR2 buffer (50 mM HEPES (pH=7.4), 10 mM MgCl2, 10 mM NaCl, 1 mM CaCL2, 0.1% BSA, 10 μg/ml Saponin). At this point pre-bound SPA bead, membrane complex was incubated at room temperature for 4 h with varying concentrations of punitive CCR2 antagonists (in 1% DMSO, final) and 0.03 nM ^125I-rhMCP-1 in CCR2Buffer (S.A. 2200 Ci/mmol, PerkinElmer Life and Analytical Science, Boston, Mass.; NEX332). Binding competition was measured using a 1450 Microbeta Trilux counter (Wallac, Gaithersburg, Md.). Binding constants (IC50 and slope) were calculated using GraphPad Prism software (GraphPad Software, Inc., La Jolla Calif.).

T1 sequence (P41597 whole entry): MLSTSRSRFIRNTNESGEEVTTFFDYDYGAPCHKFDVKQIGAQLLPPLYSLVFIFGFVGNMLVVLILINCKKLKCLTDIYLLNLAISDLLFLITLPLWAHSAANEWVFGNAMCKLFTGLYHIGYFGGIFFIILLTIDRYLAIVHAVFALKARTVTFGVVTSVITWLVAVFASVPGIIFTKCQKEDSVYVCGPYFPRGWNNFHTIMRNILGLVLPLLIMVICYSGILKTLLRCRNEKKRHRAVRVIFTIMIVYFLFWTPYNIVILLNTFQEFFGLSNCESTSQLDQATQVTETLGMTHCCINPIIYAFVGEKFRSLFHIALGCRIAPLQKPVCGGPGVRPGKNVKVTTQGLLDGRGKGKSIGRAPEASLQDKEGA

COc1ccc(C2(O)CCC(N3C[C@@H]4[C@H](C3)[C@H]4C(=O)NCC(=O)Nc3cccc(C(F)(F)F)c3)CC2)cn1 (some centres unmarked) [Compound 147] and COc1ccc([C@H]2CC[C@@H](N3C[C@@H]4[C@H](C3)[C@H]4C(=O)NCC(=O)Nc3cccc(C(F)(F)F)c3)CC2)cn1 [Compound 132] are within 1.5-fold of each other in IC50: 0.0045 µM for the first, 0.0034 µM for the second.

COc1ccc([C@H]2CC[C@@H](N3C[C@@H]4[C@H](C3)[C@H]4C(=O)NCC(=O)Nc3cccc(C(F)(F)F)c3)CC2)cc1 [Compound 130] and O=C(CNC(=O)[C@H]1[C@@H]2CN([C@H]3CC[C@@H](c4ccc(O)cc4)CC3)C[C@@H]21)Nc1cccc(C(F)(F)F)c1 [Compound 114] are within 1.5-fold of each other in IC50: 0.004 µM for the first, 0.0031 µM for the second.

O=C(CNC(=O)[C@H]1[C@@H]2CN([C@H]3CC[C@@H](c4ccccc4)OC3)C[C@@H]21)Nc1cccc(C(F)(F)F)c1 [Compound 89] and O=C(CNC(=O)[C@H]1[C@@H]2CN([C@H]3CC[C@@H](c4cccnc4)CC3)C[C@@H]21)Nc1cccc(C(F)(F)F)c1 [Compound 82] are within 1.5-fold of each other in IC50: 0.0036 µM for the first, 0.004 µM for the second.

First: O=C(CNC(=O)[C@H]1[C@@H]2CN(C3CCC(O)(c4ccc5c(c4)OCO5)CC3)C[C@@H]21)Nc1cccc(C(F)(F)F)c1 (some centres unmarked) [Compound 152]
Second: O=C(CNC(=O)[C@H]1[C@@H]2CN([C@H]3CC[C@@H](c4ccsc4)CC3)C[C@@H]21)Nc1cccc(C(F)(F)F)c1 [Compound 97]
The IC50 of the first is 2.7-fold higher: 0.01 µM for the first, 0.0037 µM for the second.

Compared with COc1ncc([C@H]2CC[C@@H](N3C[C@@H]4[C@H](C3)[C@H]4C(=O)NCC(=O)Nc3cccc(C(F)(F)F)c3)CC2)c(OC)n1 [Compound 153], O=C(CNC(=O)[C@H]1[C@@H]2CN([C@H]3CC[C@@H](c4ccncc4)CC3)C[C@@H]21)Nc1cccc(C(F)(F)F)c1 [Compound 83] is 2.4-fold higher in IC50: 0.0045 µM for the first, 0.011 µM for the second.

Work on O=C(CNC(=O)[C@H]1[C@@H]2CN([C@H]3CC[C@@H](c4ncccn4)CC3)C[C@@H]21)Nc1cccc(C(F)(F)F)c1 [Compound 90] yielded an IC50 of 0.0076 µM.

Same assay, conditions: membranes from Ba/F3 cells transfected with human CCR2; 0.03 nM 125I-rhMCP-1; class symbols

CC(C)C1CCC(N2C[C@@H]3[C@H](C2)[C@H]3C(=O)NCC(=O)Nc2cccc(C(F)(F)F)c2)CC1 (some centres unmarked) [Compound 45] and O=C(CNC(=O)[C@H]1[C@@H]2CN(C3CCC(O)CC3)C[C@@H]21)Nc1cccc(C(F)(F)F)c1 (some centres unmarked) [Compound 34] fall in the same range of IC50: 0.201 to 0.7 µM for the first, 0.201 to 0.7 µM for the second.

COc1ccc(CC2CCCC(N3C[C@@H]4[C@H](C3)[C@H]4C(=O)NCC(=O)Nc3cccc(C(F)(F)F)c3)C2)cc1 (some centres unmarked) [Compound 146] and O=C(CNC(=O)[C@H]1[C@@H]2CN(C3CCC3)C[C@@H]21)Nc1cccc(C(F)(F)F)c1 [Compound 110] fall in the same range of IC50: 0.201 to 0.7 µM for the first, 0.201 to 0.7 µM for the second.

First: O=C(CNC(=O)[C@H]1[C@@H]2CN(C3CC[C@@H](c4ccccc4)C3)C[C@@H]21)Nc1cccc(C(F)(F)F)c1 (some centres unmarked) [Compound 65]
Second: O=C(CNC(=O)[C@H]1[C@@H]2CN(C3CC(c4ccccc4)C3)C[C@@H]21)Nc1cccc(C(F)(F)F)c1 (some centres unmarked) [Compound 49]
The IC50 of the first is higher: 0.201 to 0.7 µM for the first, 0.051 to 0.2 µM for the second. The second is the more potent here.

First: O=C(CNC(=O)[C@H]1[C@@H]2CN(C3CCCC3)C[C@@H]21)Nc1cccc(C(F)(F)F)c1 [Compound 11]
Second: O=C(CNC(=O)[C@H]1[C@@H]2CN(C3CC3)C[C@@H]21)Nc1cccc(C(F)(F)F)c1 [Compound 78]
The IC50 of the first is lower: 0.051 to 0.2 µM for the first, 0.201 to 0.7 µM for the second. The first is the more potent here.

O=C([C@H]1[C@@H]2CN([C@H]3CC[C@@H](c4ccccc4)CC3)C[C@@H]21)N1CCN(c2cccc(C(F)(F)F)c2)CC1 [Compound 108] and O=C([C@H]1[C@@H]2CN([C@H]3CC[C@@H](c4ccccc4)CC3)C[C@@H]21)N1CCC(Nc2nccc(C(F)(F)F)n2)CC1 [Compound 128] fall in the same range of IC50: 0.201 to 0.7 µM for the first, 0.201 to 0.7 µM for the second.

First: O=C(CNC(=O)[C@H]1[C@@H]2CN([C@H]3CC[C@@H](c4ccc(=O)[nH]c4)CC3)C[C@@H]21)Nc1cccc(C(F)(F)F)c1 [Compound 117]
Second: O=C(CNC(=O)[C@H]1[C@@H]2CN([C@H]3CC[C@H](c4ccsc4)CC3)C[C@@H]21)Nc1cccc(C(F)(F)F)c1 [Compound 99]
The IC50 of the first is lower: < 0.05 µM for the first, 0.051 to 0.2 µM for the second. The first is the more potent here.

First: O=C(CNC(=O)[C@H]1[C@@H]2CN([C@H]3CC[C@H](NC(=O)OCc4ccccc4)CC3)C[C@@H]21)Nc1cccc(C(F)(F)F)c1 [Compound 155]
Second: O=C(CNC(=O)[C@H]1[C@@H]2CN([C@H]3CC[C@@H](Nc4ccc(F)c(F)c4)CC3)C[C@@H]21)Nc1cccc(C(F)(F)F)c1 [Compound 148]
The IC50 of the first is higher: 0.201 to 0.7 µM for the first, < 0.05 µM for the second.

Cn1ncc2cc([C@H]3CC[C@H](N4C[C@@H]5[C@H](C4)[C@H]5C(=O)NCC(=O)Nc4cccc(C(F)(F)F)c4)CC3)ccc21 [Compound 151] and Cn1ccnc1C1CCC(N2C[C@@H]3[C@H](C2)[C@H]3C(=O)NCC(=O)Nc2cccc(C(F)(F)F)c2)CC1 (some centres unmarked) [Compound 95] fall in the same range of IC50: 0.051 to 0.2 µM for the first, 0.051 to 0.2 µM for the second.

CC(C1CC1)N1C[C@@H]2[C@H](C1)[C@H]2C(=O)NCC(=O)Nc1cccc(C(F)(F)F)c1 (some centres unmarked) [Compound 12] and COCC(C)N1C[C@@H]2[C@H](C1)[C@H]2C(=O)NCC(=O)Nc1cccc(C(F)(F)F)c1 (some centres unmarked) [Compound 15] fall in the same range of IC50: 0.201 to 0.7 µM for the first, 0.201 to 0.7 µM for the second.

First: O=C(NCCc1cccc(C(F)(F)F)c1)C1[C@H]2CN(C3CCCC3)C[C@@H]12 (some centres unmarked) [Compound 46]
Second: O=C(NCCc1cc(F)cc(C(F)(F)F)c1)[C@H]1[C@@H]2CN([C@H]3CC[C@@H](c4ccccc4)CC3)C[C@@H]21 [Compound 67]
The IC50 of the first is higher: 0.201 to 0.7 µM for the first, 0.051 to 0.2 µM for the second. The second is the more potent here.

First: O=C([C@H]1[C@@H]2CN([C@H]3CC[C@@H](c4ccccc4)CC3)C[C@@H]21)N1CC[C@H](Nc2nccc(C(F)(F)F)n2)C1 [Compound 111]
Second: CN(C(=O)[C@H]1[C@@H]2CN([C@H]3CC[C@@H](c4ccccc4)CC3)C[C@@H]21)[C@H]1CCN(c2ncc(C(F)(F)F)cn2)C1 [Compound 129]
The IC50 of the first is lower: 0.051 to 0.2 µM for the first, 0.201 to 0.7 µM for the second.

O=C(CNC(=O)[C@H]1[C@@H]2CN(C3CCC(O)(c4cncs4)CC3)C[C@@H]21)Nc1cccc(C(F)(F)F)c1 (some centres unmarked) [Compound 121] and O=C(CNC(=O)[C@H]1[C@@H]2CN([C@H]3CC[C@@H](c4cccs4)CC3)C[C@@H]21)Nc1cccc(C(F)(F)F)c1 [Compound 98] cannot be ordered by IC50: < 0.05 µM for the first, < 0.05 µM for the second.

First: O=C(NC1Cc2ccc(Br)cc2C1)[C@H]1[C@@H]2CN([C@H]3CC[C@@H](c4ccccc4)CC3)C[C@@H]21 (some centres unmarked) [Compound 68]
Second: O=C(NC1CCc2ccc(F)cc2C1)[C@H]1[C@@H]2CN([C@H]3CC[C@@H](c4ccccc4)CC3)C[C@@H]21 (some centres unmarked) [Compound 36]
The IC50 of the first is lower: 0.051 to 0.2 µM for the first, 0.201 to 0.7 µM for the second. The first is the more potent here.

First: N#Cc1ccc(C2CCN(C(=O)[C@H]3[C@@H]4CN([C@H]5CC[C@@H](c6ccccc6)CC5)C[C@@H]43)C2)cc1 (some centres unmarked) [Compound 41]
Second: N#Cc1cccc(C2CCN(C(=O)[C@H]3[C@@H]4CN([C@H]5CC[C@@H](c6ccccc6)CC5)C[C@@H]43)C2)c1 (some centres unmarked) [Compound 40]
The IC50 of the first is higher: 0.201 to 0.7 µM for the first, 0.051 to 0.2 µM for the second.

First: O=C(CNC(=O)[C@H]1[C@@H]2CN([C@H]3CC[C@@H](c4cc(Br)c(O)c(Br)c4)CC3)C[C@@H]21)Nc1cccc(C(F)(F)F)c1 [Compound 163]
Second: O=C(CNC(=O)[C@H]1[C@@H]2CN(C3CCC(O)(c4cncs4)CC3)C[C@@H]21)Nc1cccc(C(F)(F)F)c1 (some centres unmarked) [Compound 123]
The IC50 of the first is lower: < 0.05 µM for the first, 0.201 to 0.7 µM for the second.

COc1ccc(CC2CCCC(N3C[C@@H]4[C@H](C3)[C@H]4C(=O)NCC(=O)Nc3cccc(C(F)(F)F)c3)C2)cc1 (some centres unmarked) [Compound 144] gave an IC50 of 0.051 to 0.2 µM.

In the case of COc1ccc([C@H]2CC[C@H](N3C[C@@H]4[C@H](C3)[C@H]4C(=O)NCC(=O)Nc3cccc(C(F)(F)F)c3)CC2)cc1 [Compound 131], the “IC50 (nM)” value is reported as “D (compounds with IC50 values between 701 nM and 110 nM are designated as D class compounds)”.
In the case of O=C(NC1Cc2ccccc2C1)[C@H]1[C@@H]2CN([C@H]3CC[C@@H](c4ccccc4)CC3)C[C@@H]21 [Compound 16], the “IC50 (nM)” value is reported as “D (compounds with IC50 values between 701 nM and 110 nM are designated as D class compounds)”.
O=C1CCC(N2C[C@@H]3[C@H](C2)[C@H]3C(=O)NCC(=O)Nc2cccc(C(F)(F)F)c2)CC1 [Compound 29] was tested, and the “IC50 (nM)” value was “D (compounds with IC50 values between 701 nM and 110 nM are designated as D class compounds)”.
For CC(CCc1ccccc1)N1C[C@@H]2[C@H](C1)[C@H]2C(=O)NCC(=O)Nc1cccc(C(F)(F)F)c1 (some centres unmarked) [Compound 50], the “IC50 (nM)” value was “D (compounds with IC50 values between 701 nM and 110 nM are designated as D class compounds)”.
In the case of Cn1cc([C@H]2CC[C@H](N3C[C@@H]4[C@H](C3)[C@H]4C(=O)NCC(=O)Nc3cccc(C(F)(F)F)c3)CC2)cn1 [Compound 96], the “IC50 (nM)” value is reported as “D (compounds with IC50 values between 701 nM and 110 nM are designated as D class compounds)”.
For O=C(CNC(=O)[C@H]1[C@@H]2CN([C@H]3CC[C@@H](NS(=O)(=O)C4CC4)CC3)C[C@@H]21)Nc1cccc(C(F)(F)F)c1 [Compound 142], the “IC50 (nM)” value was “D (compounds with IC50 values between 701 nM and 110 nM are designated as D class compounds)”.
O=C([C@H]1[C@@H]2CN([C@H]3CC[C@@H](c4ccccc4)CC3)C[C@@H]21)N1CC(Oc2ccc(C(F)(F)F)cc2)C1 [Compound 76] was tested, and the “IC50 (nM)” value was “D (compounds with IC50 values between 701 nM and 110 nM are designated as D class compounds)”.
With COC1CCC(N2C[C@@H]3[C@H](C2)[C@H]3C(=O)NCC(=O)Nc2cccc(C(F)(F)F)c2)CC1 (some centres unmarked) [Compound 39] the “IC50 (nM)” value was “D (compounds with IC50 values between 701 nM and 110 nM are designated as D class compounds)”.
